Consider 7 molecules from patent publication US20040072319A1, “Molecules that modulate ubiquintin-dependent proteolysis and methods for identifying same” (priority 2003, published 2004).

Substitutions are numbered along the chain they refer to. Peptide text beside a SMILES is read from it.

The target of test [1] is Cdc4 (yeast F-box protein, recombinant, expressed in baculovirus-infected insect cells) (yeast) (UniProt P07834). The experiment in a line: equilibrium binding.
In test [2] the target is T1, Skp1-Cdc4 complex (yeast, UniProt P07834 1-779; P52286 1-194, limits assumed).
T1 construct: Purified complex (Gst removed by TEV, size exclusion) for fluorescence polarization and SPOTS arrays; also called Cdc4/Skp1; cdc4/skp1 complex
Kind of test: fluorescence polarization, 5 nM fluorescein-labeled peptide, Cdc4/Skp1 titrated. A general note: In fluorescence polarisation assays a small probe gives low polarisation when free and higher when bound to something large.
Target sequence in this assay (P52286 whole entry, chain 2 of 2, one chain of several): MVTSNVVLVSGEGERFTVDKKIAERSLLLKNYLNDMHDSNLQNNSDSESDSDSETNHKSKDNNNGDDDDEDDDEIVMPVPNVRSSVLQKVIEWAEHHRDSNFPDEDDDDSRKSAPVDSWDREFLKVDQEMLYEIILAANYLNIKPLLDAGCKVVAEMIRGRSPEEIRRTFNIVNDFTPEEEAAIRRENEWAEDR

Test [3] has as its target T2, Cdc4 (Saccharomyces cerevisiae, UniProt P07834). Kind of test: Fluorescence polarization equilibrium binding of peptides to Cdc4. The arrangement: made in house; host or cells: Cdc4: baculovirus-infected insect (Sf9) cells; Gst-Skp1: E. coli BL21 codon plus; species or system yeast. Particulars: Hill plot of peptide binding to Cdc4. Here is the method: Equilibrium binding constant determination was carried out using fluorescence polarization on a Beacon 2000 Fluorescence Polarization System (Pan Vera, Wis.) equipped with a 100 μL sample chamber. Fluorescein-labeled probes were prepared through the reaction of carboxyterminal-peptides with 5-(and-6)-carboxyfluorescein succinimidyl ester (Molecular Probes), purified by reverse-phase HPLC, and confirmed by mass spectrometry. Binding studies were conducted with 5 nM fluorescein-labeled probe dissolved in PBS containing 100 μg/ml BSA and 1 mM dithiothreitol. Reaction mixtures were allowed to equilibrate for 10 minutes at room temperature prior to each measurement. All fluorescence polarization measurements were conducted at 22° C.
Target sequence in this assay (P52286 whole entry partner, one chain of several): as the sequence (P52286 whole entry, chain 2 of 2, one chain of several) above

In another test the target is T3, SCFcdc4 (Saccharomyces cerevisiae, UniProt P07834).
T3 construct: made in house; host or cells: SF9 cells infected with recombinant baculoviruses
Kind of test: In vitro ubiquitination of substrates by SCFcdc4 in presence of peptide. Particulars: excess peptide. The class given is biochemical, yeast. The text has this: (§1) SCF complexes were purified from SF9 cells infected with recombinant baculoviruses and used in binding assays and ubiquitination reactions essentially as described (7). Gst-Skp1 expressed in BL21 codon plus cells (Stratagene) then purified on glutathione resin was used to capture full Cdc4 from insect cell lysates. Truncated forms of Cdc4 were enriched prior to Gst-Skp1 capture by affinity purification of hexahistidine fusion proteins on a metal chelate column. The Skp1-Cdc4 complexes were released from the Gst moiety by cleavage with TEV protease and further purified by size exclusion chromatography on a Superdex S75 or S200 column. Biotin labeled […]p[…] (SEQ ID NO. 1), […] (SEQ ID NO. 12), and APPLSQEpTFSDLWK (SEQ ID NO. 13) were synthesized by addition of d-biotin (Sigma) with an Fmoc-e-aminocaproic acid (Bachem) spacer to carboxy-terminal peptides. […] Streptavidin-agarose beads (Sigma) were incubated in the presence of biotinylated peptide for 90 min. at 4° C. Beads were washed 3 times and then incubated with lysates from Cdc4 expressing baculovirus infected Sf9 cells. Beads were washed 4 times, after which SDS-PAGE gel loading buffer was added and the beads were boiled for 5 min. Proteins were separated by SDS-PAGE and visualized by silver stain. […]

The target of test [4] is T2, Cdc4. The experiment in a line: Capture of Cdc4 from baculovirus-infected insect cell lysates by biotinylated peptide. Type of test: binding, yeast. Details: made in house; host or cells: Sf9 insect cells infected with recombinant baculovirus (crude lysate). Particulars: insect cells infected with Cdc4 baculovirus. From the text: (§2) SCF complexes were purified from SF9 cells infected with recombinant baculoviruses and used in binding assays and ubiquitination reactions essentially as described (7). Gst-Skp1 expressed in BL21 codon plus cells (Stratagene) then purified on glutathione resin was used to capture full Cdc4 from insect cell lysates. Truncated forms of Cdc4 were enriched prior to Gst-Skp1 capture by affinity purification of hexahistidine fusion proteins on a metal chelate column. The Skp1-Cdc4 complexes were released from the Gst moiety by cleavage with TEV protease and further purified by size exclusion chromatography on a Superdex S75 or S200 column. Biotin labeled […]p[…] (SEQ ID NO. 1), […] (SEQ ID NO. 12), and APPLSQEpTFSDLWK (SEQ ID NO. 13) were synthesized by addition of d-biotin (Sigma) with an Fmoc-e-aminocaproic acid (Bachem) spacer to carboxy-terminal peptides. […] Streptavidin-agarose beads (Sigma) were incubated in the presence of biotinylated peptide for 90 min. at 4° C. Beads were washed 3 times and then incubated with lysates from Cdc4 expressing baculovirus infected Sf9 cells. Beads were washed 4 times, after which SDS-PAGE gel loading buffer was added and the beads were boiled for 5 min. Proteins were separated by SDS-PAGE and visualized by silver stain. Peptide out-competition of phosphorylated substrates was carried out with immunopurified Skp1^FLAG-Cdc4 from insect cells, which were incubated with phosphopeptides prior to addition of phospho-Sic1 or phospho-Cyclin E-Cdk2. For kinase inhibition assays, purified recombinant Clb5-Cdc28 complex (30 ng) was incubated with mutant forms of Sic1 (40 ng) and histone H1 (HH1, 2 μg) for 1 h on ice prior to addition of [^32P]-γ-ATP and incubation at 25° C. for 30 min. Samples were separated by SDS-PAGE and visualized by autoradiography.

Another test deals with T4, Cdc4-Skp1 complexes (Saccharomyces cerevisiae, UniProt P07834).
T4 construct: made in house; host or cells: insect cells (baculovirus)
The experiment in a line: Peptide out-competition of phosphorylated substrates binding to Cdc4-Skp1. Particulars: peptide 3, 17, 68 μM in FIG. 6f. Details: species or system yeast.
Description: as §2

Test [5] deals with Cdc4 (yeast F-box protein, recombinant, expressed in baculovirus-infected insect cells) (yeast) (UniProt P07834). The experiment in a line: equilibrium binding (Table in FIG. 3).
For test [6], the target named is T5, Cdc4 (Saccharomyces cerevisiae, UniProt P07834).
T5 construct: made in house; host or cells: Sf9 insect cells infected with recombinant baculovirus (crude lysate)
T5 sequence (P07834 whole entry, looked up): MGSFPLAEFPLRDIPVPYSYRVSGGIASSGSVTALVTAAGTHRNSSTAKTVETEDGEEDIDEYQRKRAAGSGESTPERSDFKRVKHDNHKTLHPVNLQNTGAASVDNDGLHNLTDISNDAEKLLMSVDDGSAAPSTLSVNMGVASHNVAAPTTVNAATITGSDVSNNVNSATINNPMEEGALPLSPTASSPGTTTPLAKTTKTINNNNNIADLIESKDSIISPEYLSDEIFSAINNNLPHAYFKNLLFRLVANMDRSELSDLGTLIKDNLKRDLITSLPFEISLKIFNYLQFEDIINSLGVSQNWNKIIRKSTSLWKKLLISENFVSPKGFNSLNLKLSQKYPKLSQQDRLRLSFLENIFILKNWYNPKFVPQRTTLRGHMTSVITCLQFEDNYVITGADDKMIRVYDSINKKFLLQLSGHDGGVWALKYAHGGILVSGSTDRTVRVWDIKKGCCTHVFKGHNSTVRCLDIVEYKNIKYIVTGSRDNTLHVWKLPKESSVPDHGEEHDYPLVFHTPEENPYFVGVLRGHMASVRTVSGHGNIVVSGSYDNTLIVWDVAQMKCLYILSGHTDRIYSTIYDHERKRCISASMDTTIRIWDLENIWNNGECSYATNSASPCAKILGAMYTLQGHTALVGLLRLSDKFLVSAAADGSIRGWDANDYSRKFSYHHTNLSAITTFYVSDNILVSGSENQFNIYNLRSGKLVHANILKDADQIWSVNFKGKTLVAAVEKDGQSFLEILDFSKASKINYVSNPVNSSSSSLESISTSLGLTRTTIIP
Kind of test: Capture of Cdc4 from baculovirus-infected insect cell lysates by biotinylated peptide. Particulars: insect cells infected with Cdc4 baculovirus. Type of test: binding, yeast.
Description: as §1

Test [7] deals with Cdc4 (yeast F-box protein, recombinant, expressed in baculovirus-infected insect cells) (yeast) (UniProt P07834). The experiment in a line: equilibrium binding, fluorescence polarization.
In test [8] the target is T1, Skp1-Cdc4 complex. Kind of test: fluorescence polarization.
Target sequence in this assay (P52286 whole entry, one chain of several): as the sequence (P52286 whole entry, chain 2 of 2, one chain of several) above
Test [9] addresses T6, Cdc4 (yeast F-box protein, recombinant, expressed in baculovirus-infected insect cells) (yeast, UniProt P07834 1-779).
T6 construct: also called Cdc4^FLAG
T6 sequence (looked up): T5 sequence (P07834 whole entry, looked up)
Kind of test: capture of Gst-Sic1 on Cdc4^FLAG resin, anti-Sic1 blot.

T4 sequence (P52286 whole entry partner, one chain of several): as the sequence (P52286 whole entry, chain 2 of 2, one chain of several) above
T3 sequence (P52286 whole entry partner, one chain of several): as the sequence (P52286 whole entry, chain 2 of 2, one chain of several) above
T3 sequence (Q12018 whole entry partner, one chain of several): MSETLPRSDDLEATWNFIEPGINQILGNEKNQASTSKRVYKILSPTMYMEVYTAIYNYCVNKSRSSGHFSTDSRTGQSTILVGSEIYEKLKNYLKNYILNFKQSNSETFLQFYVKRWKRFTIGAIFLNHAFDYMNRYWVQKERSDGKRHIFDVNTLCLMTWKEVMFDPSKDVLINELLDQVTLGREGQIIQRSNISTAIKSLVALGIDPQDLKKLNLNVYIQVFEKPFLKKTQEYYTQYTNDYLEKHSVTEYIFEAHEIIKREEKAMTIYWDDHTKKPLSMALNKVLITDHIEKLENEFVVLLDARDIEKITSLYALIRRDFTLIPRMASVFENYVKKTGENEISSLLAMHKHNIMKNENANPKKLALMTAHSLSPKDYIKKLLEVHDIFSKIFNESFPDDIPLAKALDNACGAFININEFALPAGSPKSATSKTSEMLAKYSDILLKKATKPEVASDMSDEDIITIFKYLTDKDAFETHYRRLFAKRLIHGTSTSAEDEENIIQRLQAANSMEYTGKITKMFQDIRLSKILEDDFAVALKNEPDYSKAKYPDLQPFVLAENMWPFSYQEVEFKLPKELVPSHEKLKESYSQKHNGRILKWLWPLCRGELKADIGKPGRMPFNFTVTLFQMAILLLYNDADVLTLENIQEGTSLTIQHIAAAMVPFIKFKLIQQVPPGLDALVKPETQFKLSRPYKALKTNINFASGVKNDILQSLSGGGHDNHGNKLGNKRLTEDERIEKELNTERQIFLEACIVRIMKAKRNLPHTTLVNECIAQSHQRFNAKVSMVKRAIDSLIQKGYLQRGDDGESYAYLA

Broadly, the Kd is the free concentration of one partner at which half of the binding sites on the other are occupied at equilibrium, for simple one-to-one binding. For Cdc 16 peptide LSKNLLpTPQEEWD, the Kd in test [1] amounted to 750 nM; with Skp1-Cdc4 complex [2], 900 nM.

For orientation: Hill coefficient means the slope factor of the fitted curve. On to `CC(C)C[C@H](NC(=O)CNC(=O)[C@H](CO)NC(=O)[C@@H]1CCCN1C(=O)[C@H](CC(C)C)NC(=O)[C@@H]1CCCN1C(=O)[C@H](CO)NC(=O)[C@H](C)N)C(=O)N[C@@H](CC(C)C)C(=O)N[C@H](C(=O)N1CCC[C@H]1C(=O)N1CCC[C@H]1C(=O)N[C@@H](CCC(N)=O)C(=O)N[C@@H](CO)C(=O)NCC(=O)N[C@@H](CCCCN)C(=O)N[C@@H](CCCCN)C(=O)N[C@@H](CCC(N)=O)C(=O)N[C@@H](CO)C(=O)O)[C@@H](C)OP(=O)(O)O` [CycE-19mer, ASPLPSGLLpTPPQSGKKQS] (HELM PEPTIDE1{A.S.P.L.P.S.G.L.L.[C[C@@H](OP(=O)(O)O)[C@H](N[*:1])C(=O)[*:2]].P.P.Q.S.G.K.K.Q.S}$$$$V2.0), for which the Hill coefficient on Cdc4 [3] is 0.99. In addition, the results for the “block of ubiquitination of SCFcdc4 substrates” value at SCFcdc4 (listed as CycE19-pT380) and on SCFcdc4 (listed as cycE19P) were “able to out-compete” and “blocked”, respectively. The “capture of Cdc4 from lysates by biotinylated peptide” value on Cdc4 [4] (listed as CycE19-pT380) was “able to capture Cdc4”; on Cdc4 [4] (listed as CycE^19-pT380), “captures recombinant Cdc4”; on Cdc4 [4] (listed as cycE19P) it was “capture of Cdc4”; on Cdc4 [4] (listed as cycEpT19mer) it was “able to precipitate cdc4”. Besides, the “competition with substrates (Sic1, cyclin E1, Far1) for binding to Cdc4” value at Cdc4-Skp1 complexes (listed as CycE19-pT380) is “able to out-compete”; on Cdc4-Skp1 complexes (listed as CycE^19-pT380) it was “out-competes binding of Sic1 and cyclin E1”; at Cdc4-Skp1 complexes (listed as cycE19P), “able to compete”; on Cdc4-Skp1 complexes (listed as cycEpT), “inhibits the interaction”; on Cdc4-Skp1 complexes (listed as cyclin E phosphopeptide), “competed”.

With Gcn4-9mer FLPpTPVLED (peptide), the Kd in [5] came to 675 nM; with Skp1-Cdc4 complex [2], 880 nM.

In the case of “ASPLPSGLLTPPQSGKKQS [unphosphorylated peptide, biotin labeled unphosphorylated cyclin E1 19 residue control peptide, reference compound]”, the “capture of Cdc4 from lysates by biotinylated peptide” value with Cdc4 [6] (listed as non-phosphorylated CycE^19-pT380 peptide) is on record as “does not”; in the test with Cdc4 [6] (listed as unphosphorylated version of the peptide), “failed to interact with cdc4”.

In the case of CycEpS-9mer GLLpSPPQSG (peptide), in test [7], the fold lower affinity (against the phosphothreonine cyclin E peptide) amounted to 6 fold. Besides, the fold lower affinity (against the phosphothreonine peptide) in the test with Skp1-Cdc4 complex [8] is 6 fold.

B1: Sic1 6m (Sic1^9m with T33, T45 and S76 restored), Gst fusion (other, yeast, UniProt P38634 1-284, looked up)
chain: MAPSAPPRSRGTRYLAQPSGNTSSSALMQGQKTPQKPSQNLVPVTPSTTKSFKNAPLLAPPNSNMGMTAPFNGLTSPQRAPFPKSSVKRTLFQFESHDNGTVREEQEPLGRVNRILFPTQQNVDIDAAEEEEEGEVLLPPSRPTSARQLHLSLERDEFDQTHRKKIIKDVPGAPSDKVITFELAKNWNNNVPKNDARSQESEDEEDIIINPVRVGKNPFASDELVTQEIRNERKRAMLRENPDIEDVITYVNKKGEVVEKRRLTDEEKRRFKPKALFQSRDQEH
modifications: treated with Cln2-Cdc28 kinase
notes: not shown: glutathione S-transferase (Gst) fusion moiety of pGEX-3x
As for B1, the binding result in [9] is reported as “no binding”.

B2: Sic1 7m (Sic1^9m with T45 and S76 restored), Gst fusion (other, yeast, UniProt P38634 1-284, looked up)
chain: B1 chain with T33A
modifications: treated with Cln2-Cdc28 kinase
notes: as for B1
B2: in test [9], the binding result is listed as “no binding”.
